Experimental data taken from patent publication US20020098148A1, “NON-STEROIDAL RADIOLABELED AGONIST/ANTAGONIST COMPOUNDS AND THEIR USE IN PROSTATE CANCER IMAGING” (priority 1997, published 2002).

Key:
[1] = Cockshott et al. 1991; cited from earlier work
androgen receptor (AR) = biological target: T1, androgen receptor (AR) (Rattus norvegicus, UniProt P15207); assay: AR competitive binding with 3H-mibolerone in cytosol
T1 construct: The minimum concentration of ^3H-MIB to saturate AR sites in the cytosol preparation was 1 nM; from tissue; host or cells: cytosol
T1 sequence (P15207 1-902): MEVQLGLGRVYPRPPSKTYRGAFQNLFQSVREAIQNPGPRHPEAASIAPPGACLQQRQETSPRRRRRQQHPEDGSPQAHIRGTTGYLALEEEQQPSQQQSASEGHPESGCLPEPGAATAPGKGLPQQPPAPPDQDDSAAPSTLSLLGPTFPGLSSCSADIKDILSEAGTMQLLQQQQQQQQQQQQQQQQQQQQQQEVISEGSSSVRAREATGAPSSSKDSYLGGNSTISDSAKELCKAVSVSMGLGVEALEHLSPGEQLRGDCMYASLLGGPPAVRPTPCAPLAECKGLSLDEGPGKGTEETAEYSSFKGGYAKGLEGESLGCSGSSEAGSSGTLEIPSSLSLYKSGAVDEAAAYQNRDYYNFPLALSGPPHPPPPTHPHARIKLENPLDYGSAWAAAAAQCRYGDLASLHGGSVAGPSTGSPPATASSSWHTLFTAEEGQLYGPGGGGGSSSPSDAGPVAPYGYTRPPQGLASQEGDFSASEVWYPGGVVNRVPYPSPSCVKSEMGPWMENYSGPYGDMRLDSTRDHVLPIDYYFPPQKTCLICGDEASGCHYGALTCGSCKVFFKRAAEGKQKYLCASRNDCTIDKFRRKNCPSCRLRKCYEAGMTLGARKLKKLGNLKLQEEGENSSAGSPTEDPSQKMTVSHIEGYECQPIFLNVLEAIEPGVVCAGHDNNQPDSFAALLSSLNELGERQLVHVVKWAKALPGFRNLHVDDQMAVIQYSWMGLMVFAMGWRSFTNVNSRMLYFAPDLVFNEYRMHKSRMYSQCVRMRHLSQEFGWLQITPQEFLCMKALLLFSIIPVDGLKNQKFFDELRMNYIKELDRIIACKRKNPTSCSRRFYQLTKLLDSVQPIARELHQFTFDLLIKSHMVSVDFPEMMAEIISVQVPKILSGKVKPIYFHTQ
Description: For the determination of non-specific binding, separate experiments were conducted by adding 1,000 nM MIB to the incubate. Unless otherwise indicated, all experiments were repeated three times or more. […] Radioactivity was counted in a liquid scintillation counter (Model LS6800, Beckman Instruments Inc., Palo Alto, Calif.).
To determine the Kd of MIB, data were analyzed using a modified form of the Scatchard equation:
where B was the concentration of specifically-bound ^3H-MIB in the incubate, F was the concentration of free ^3H-MIB in the incubate, and Bmax was the maximum concentration of ^3H-MIB specifically bound to AR, which is also the concentration of available AR binding sites in the incubate. […]
For competition binding experiments, competitive displacement curves were constructed for each ligand with percent specific binding (specific binding of ^3H-MIB at a particular ligand concentration expressed as a percentage of the specific binding of ^3H-MIB in the absence of ligand) on the vertical axis and ligand concentration on the horizontal axis. […]
where B0 is the specific binding of ^3H-MIB in the absence of ligand, and C is the ligand concentration. Binding affinities of the ligands were then compared using the equilibrium dissociation constant (Ki) of each ligand, as calculated using the equation below: […]

Structure (SMILES) | share of radioactivity in plasma accounted for by parent compound [1] | Ki (androgen receptor (AR)) [nM] | Ki value lower than that of R-Bicalutamide (androgen receptor (AR); R-isomer) [%]
CC(O)(CS(=O)(=O)c1ccc(F)cc1)C(=O)Nc1ccc(C#N)c(C(F)(F)F)c1 (racemic) [racemic ^14C-labeled bicalutamide, bicalutamide] | virtually all of the radioactivity in plasma |  | 
C[C@](O)(CS(=O)(=O)c1ccc(I)cc1)C(=O)Nc1ccc(C#N)c(C(F)(F)F)c1 [Compound 2] |  | 3.1 | 73
